How the values were obtained:
[1] = target: T1, HSD17B13 enzyme (Homo sapiens, UniProt Q7Z5P4); experiment: LC/MS estrone detection assay (conversion of estradiol to estrone by HSD17B13); assay type: biochemical; details: substrate 4 μM estradiol, 6 mM NAD+, 30 nM HSD17B13 enzyme, 2 hours at 26.5° C
T1 construct: His; made in house; host or cells: E. coli
T1 sequence (Q7Z5P4 20-300): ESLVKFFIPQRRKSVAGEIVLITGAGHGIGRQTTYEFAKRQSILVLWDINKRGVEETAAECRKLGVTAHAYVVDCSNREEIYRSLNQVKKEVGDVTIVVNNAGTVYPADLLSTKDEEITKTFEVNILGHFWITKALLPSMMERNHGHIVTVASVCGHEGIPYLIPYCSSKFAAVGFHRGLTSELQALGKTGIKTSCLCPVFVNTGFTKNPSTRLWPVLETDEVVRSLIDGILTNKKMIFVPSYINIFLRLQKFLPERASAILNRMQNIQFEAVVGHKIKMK
Description: The liquid chromatography/mass spectrometry (LC/MS) estrone detection assay monitors the conversion of estradiol to estrone by HSD17B13. This assay was performed in a 96 wp format (Eppendorf deep well Plate 96/500) in an 80 μl reaction volume containing: 4 μM estradiol (E2; Cayman; Ser. No. 10/006,315); 6 mM NAD^+ (Sigma; #N0623), and 30 nM HSD17B13 enzyme (in-house; E. coli expressed His-tagged, purified, soluble protein), in a buffer containing 1M potassium phosphate buffer pH 7.4 and 0.5% vehicle (DMSO). Reactions were incubated for 2 hours at 26.5° C., and estradiol (E2) conversion to estrone (E1) was quantitated by LC-MS/MS based analyte detection for E1 using LCMS grade reagents. Reactions were terminated by the addition of two volumes of acetonitrile (MeCN; LCMS grade; CAS #75/05/8) containing deuterated (D4)-E1 as internal standard (Clear Synth; #CS-T-54273; 500 ng/mL final concentration). Samples were applied to pre-prepared Bond Elut-C18 extraction cartridges (3 mL; Agilent; Ser. No. 12/102,028), and washed and eluted in MeCN. Eluates were dried under nitrogen and re-suspended in 60% methanol (LCMS grade methanol; CAS #67/56/1) before submission for analysis. Standard curves for E1 were included for quantification. Analysis of samples was undertaken on a XBridge BEH C18 column (Waters; #186003033) using 0.1% Diethyl Amine in MeCN (mobile phase A; DEA CAS #109-89-7) and 0.1% Diethyl Amine in milli-Q water (mobile phase B) in a 3 min gradient up to 25% B. Analytes were detected in negative mode using MRM analysis, with E2 having a RT of 1.85 min and E1 having a RT of 2 min. Activity of the enzyme in the absence of NAD^+, was subtracted from samples to yield values for specific enzyme activity. Enzyme activity in the presence of test samples was expressed as a percentage of the uninhibited enzyme activity, and plotted versus inhibitor concentration. Non-linear regression was performed using the Morrison equation (see below) for tight binding inhibitors on GraphPad Prism software (GraphPad Software, La Jolla, Calif.). All assessments were undertaken in duplicate evaluations which were pooled during the extraction process and subsequently injected as duplicates for LC-MS/MS analysis. Y=Vo*(1−((((Et+X+Q)−(((Et+X+Q)^2)−4*Et*X)^0.5))/(2*Et))) Morrison equation:
Y=Activity in the presence of inhibitor; Vo=Activity in absence of inhibitor; Et=Total enzyme concentration; X=inhibitor concentration; and Q=(Ki*(1+(S/Km))), where Ki is the inhibition constant, Km is the Michaelis constant, and S is the substrate concentration.

[2] = target: T1, HSD17B13 enzyme; experiment: NADH detection assay (fluorescence based Leukotriene B3 (LTB3) assay) for HSD17B13 activity; assay type: biochemical; details: substrate 25 μM LTB3, 3 mM NAD+, 125 nM HSD17B13 enzyme, 1 hour at 26.5° C
Description: The fluorescence based Leukotriene B3 (LTB3) assay monitors the fluorescence of NADH, which is generated from NAD+ during the dehydrogenation of the substrate LTB3. The reactions were performed in a 384-well plates (Greiner; #655076) in a 20 μl reaction volume containing the following reagents (final concentrations): 25 μM LTB3 (Cayman; #20109); 3 mM NAD^+ (Sigma; #N0623); 125 nM HSD17B13 enzyme (in-house; E. coli expressed His-tagged, purified, soluble protein); 1 M potassium phosphate buffer, pH 7.4; and 1% DMSO. Reactions were initiated by co-addition of NAD+ and enzyme, and monitored for 1 hour at 26.5° C. Generation of NADH was measured as the fluorescence signal (Excitation at 340 nm and Emission at 445 nm) at 1 hour minus the baseline fluorescence at t=0. Fluorescence signals in the absence of LTB3 (negative control values), were subtracted from all values so that the results reflected substrate-dependent production of NADH. NADH standards were included to allow the conversion of relative fluorescence units into rates of enzyme activity. Enzyme activity in the presence of test compounds was expressed as a percentage of the uninhibited enzyme activity, and plotted versus inhibitor concentration. Non-linear regression was performed using a four-parameter logistic model and Microsoft Excel Solver® software. Ten concentrations of inhibitor were tested in duplicate (in the range of 30 μM-2.5 nM). Two independent concentration response assays were performed and the geometric mean is reported, =/−the SEM.

With `COc1ccccc1CCNC(=O)c1sccc1NC(=O)c1ccc(C(F)(F)C(=O)O)c(F)c1` [Example 27, 2,2-difluoro-2-(2-fluoro-4-((2-((2-methoxyphenethyl)carbamoyl)thiophen-3-yl)carbamoyl)phenyl)acetic acid] the IC50 [1] was > 10000 nM and the IC50 [2] was > 10000 nM.

For `CC(C)(C)CCNC(=O)c1sccc1NC(=O)c1ccc(O)c(Cl)c1` [Example 3, 3-(3-chloro-4-hydroxybenzamido)-N-(3,3-dimethylbutyl)thiophene-2-carboxamide], the IC50 [1] was ≤ 100 nM and the IC50 [2] was ≤ 1000 nM.

`CC(C)(C)CCNC(=O)c1sccc1NC(=O)c1cc(F)c(O)c(Cl)c1` [Example 47, 3-(3-chloro-5-fluoro-4-hydroxybenzamido)-N-(3,3-dimethylbutyl)thiophene-2-carboxamide] was tested, and the IC50 [1] was ≤ 100 nM.

With `CC(C)(C)CCNC(=O)c1sccc1NC(=O)c1cc(F)c(O)c(F)c1` [Example 18, 3-(3,5-difluoro-4-hydroxybenzamido)-N-(3,3-dimethylbutyl)thiophene-2-carboxamide] the IC50 [1] was ≤ 100 nM and the IC50 [2] was ≤ 1000 nM.

For `O=C(Nc1sc(Cl)cc1C(=O)NCCc1ccccc1OC(F)(F)F)c1ccc(O)c(F)c1` [Example 46, 5-chloro-2-(3-fluoro-4-hydroxybenzamido)-N-(2-(trifluoromethoxy)phenethyl) thiophene-3-carboxamide], the IC50 [1] was ≤ 100 nM.

With `O=C(Nc1cc(Cl)sc1C(=O)NC1(c2ccc(F)cc2)CC1)c1cc(F)c(O)c(F)c1` [Example 35, 5-chloro-3-(3,5-difluoro-4-hydroxybenzamido)-N-(1-(4-fluorophenyl)cyclopropyl)thiophene-2-carboxamide] the IC50 [1] was ≤ 100 nM.

`O=C(Nc1sc(Cl)cc1C(=O)NCCc1ccccc1F)c1ccc(O)c(F)c1` [Example 43, 5-chloro-2-(3-fluoro-4-hydroxybenzamido)-N-(2-fluorophenethyl)thiophene-3-carboxamide] was tested, and the IC50 [1] was ≤ 100 nM.

`O=C(Nc1sc(Cl)cc1C(=O)NCCc1ccccc1OC(F)(F)F)c1ccc(O)c(Cl)c1` [Example 40, 5-chloro-2-(3-chloro-4-hydroxybenzamido)-N-(2-(trifluoromethoxy)phenethyl)thiophene-3-carboxamide] was tested, and the IC50 [1] was ≤ 100 nM.

With `COc1ccccc1CCNC(=O)c1sccc1NC(=O)c1cc(Cl)c(O)c(Cl)c1` [Example 32, 3-(3,5-dichloro-4-hydroxybenzamido)-N-(2-methoxyphenethyl)thiophene-2-carboxamide] the IC50 [2] was ≤ 1000 nM.

In the case of `COc1ccccc1CCNC(=O)c1sccc1NC(=O)c1ccc(OCC(=O)O)c(Cl)c1` [Example 11, 2-(2-chloro-4-((2-((2-methoxyphenethyl)carbamoyl)thiophen-3-yl)carbamoyl)phenoxy)acetic acid], the IC50 [2] is reported as > 10000 nM.

`O=C(Nc1cc(Cl)sc1C(=O)NCCc1ccc(Cl)cc1Cl)c1ccc(O)c(F)c1` [Example 36, 5-chloro-N-(2,4-dichlorophenethy1)-3-(3-fluoro-4-hydroxybenzamido)thiophene-2-carboxamide] was tested, and the IC50 [1] was ≤ 100 nM.

Molecule `COc1ccccc1CCNC(=O)c1c(NC(=O)c2ccc(O)c(Cl)c2)sc2c1CCN(C)C2` [Example 15, 2-(3-chloro-4-hydroxybenzamido)-N-(2-methoxyphenethyl)-6-methyl-4,5,6,7-tetrahydrothieno[2,3-c]pyridine-3-carboxamide] has an IC50 [1] of 100 to 1000 nM.

`O=C(Nc1sc(Cl)cc1C(=O)NCCN1CCOCC1)c1ccc(O)c(F)c1` [Example 41, 5-chloro-2-(3-fluoro-4-hydroxybenzamido)-N-(2-morpholinoethyl)thiophene-3-carboxamide.] showed an IC50 [1] of 100 to 1000 nM.

For `O=C(Nc1cc(Cl)sc1C(=O)NCCc1ccc(F)cc1F)c1ccc(O)c(F)c1` [Example 39, 5-chloro-N-(2,4-difluorophenethyl)-3-(3-fluoro-4-hydroxybenzamido)thiophene-2-carboxamide], the IC50 [1] was ≤ 100 nM.

With `O=C(Nc1ccsc1C(=O)N[C@@H](CO)c1ccccc1)c1ccc(O)c(Cl)c1` [Example 49, (R)-3-(3-chloro-4-hydroxybenzamido)-N-(2-hydroxy-1-phenylethyl)thiophene-2-carboxamide] the IC50 [1] was ≤ 100 nM.

With `O=C(Nc1ccsc1C(=O)N[C@H](CO)c1ccccc1)c1ccc(O)c(Cl)c1` [Example 48, (S)-3-(3-chloro-4-hydroxybenzamido)-N-(2-hydroxy-1-phenylethyl) thiophene-2-carboxamide] the IC50 [1] was 100 to 1000 nM.

`O=C(Nc1cc(Cl)sc1C(=O)NCCc1ccccc1C(F)(F)F)c1ccc(O)c(Cl)c1` [Example 45, 5-chloro-3-(3-chloro-4-hydroxybenzamido)-N-(2-(trifluoromethyl)phenethyl) thiophene-2-carboxamide] was tested, and the IC50 [1] was ≤ 100 nM.

`O=C(Nc1cc(Cl)sc1C(=O)NCCc1ccccc1C(F)(F)F)c1cc(F)c(O)c(F)c1` [Example 44, 5-chloro-3-(3,5-difluoro-4-hydroxybenzamido)-N-(2-(trifluoromethyl)phenethyl) thiophene-2-carboxamide] was tested, and the IC50 [1] was ≤ 100 nM.

For `COc1ccccc1CCNC(=O)c1sccc1NC(=O)c1ccc(CCC(=O)O)c(F)c1` [Example 22, 3-(2-fluoro-4-((2-((2-methoxyphenethyl)carbamoyl)thiophen-3-yl)carbamoyl)phenyl) propanoic acid], the IC50 [2] was > 10000 nM.

With `COc1ccccc1CCNC(=O)c1sccc1NC(=O)c1cnc(O)c(Cl)c1` [Example 21, 5-chloro-6-hydroxy-N-(2-((2-methoxyphenethyl)carbamoyl)thiophen-3-yl)nicotinamide] the IC50 [2] was > 10000 nM.

In the case of `O=C(Nc1cc(Cl)sc1C(=O)NCCN1CCOCC1)c1ccc(O)c(F)c1` [Example 38, 5-chloro-3-(3-fluoro-4-hydroxybenzamido)-N-(2-morpholinoethyl)thiophene-2-carboxamide], the IC50 [1] is reported as ≤ 100 nM.

For `COc1ccccc1CCNC(=O)c1sccc1NC(=O)c1cc(Cl)c(O)c(C(C)C)c1` [Example 23, 3-(3-chloro-4-hydroxy-5-isopropylbenzamido)-N-(2-methoxyphenethyl)thiophene-2-carboxamide], the IC50 [2] was > 10000 nM.

Work on `O=C(Nc1cc(Cl)sc1C(=O)NCCc1ccc(F)cc1Cl)c1ccc(O)c(F)c1` [Example 34, 5-chloro-N-(2-chloro-4-fluorophenethyl)-3-(3-fluoro-4-hydroxybenzamido) thiophene-2-carboxamide] yielded an IC50 [1] of 100 to 1000 nM.

With `CN1CCN(CCNC(=O)c2sc(Cl)cc2NC(=O)c2ccc(O)c(F)c2)CC1` [Example 37, 5-chloro-3-(3-fluoro-4-hydroxybenzamido)-N-(2-(4-methylpiperazin-1-yl)ethyl)thiophene-2-carboxamide] the IC50 [1] was 100 to 1000 nM.

`CN1CCN(CCNC(=O)c2cc(Cl)sc2NC(=O)c2ccc(O)c(F)c2)CC1` [Example 42, 5-chloro-2-(3-fluoro-4-hydroxybenzamido)-N-(2-(4-methylpiperazin-1-yl)ethyl)thiophene-3-carboxamide] was tested, and the IC50 [1] was 1000 to 10000 nM.

Reference: patent publication US12673930B2, “Thiophene HSD17B13 inhibitors and uses thereof” (INIPHARM, INC., priority 2020, dated 2026)
